In patent US20120328696A1, “ANTI-PARKINSONIAN COMPOUND ACETYLSALICYLIC ACID MALTOL ESTER” (Hutecs Korea Pharmaceutical Co., Ltd., priority 2008, published 2012):

What was measured:
Format in all cases: in vivo
[1] = test system: tumor necrosis factor (TNF)-α; test: TNF-α expression after MA (western blot); conditions: p.o.; AME 50, EBS 20, rottlerin 20 mg/kg; MA 8 mg/kg i.p. x4; GPx-1 (+/+) and (−/−) mice
Description: (§1) The mice received four times of MA (8 mg/kg, ip) or saline as a 2 hr-time interval. Chemicals (AME, EBS, and PKC inhibitors) were administrated for 5 consecutive days (twice daily), and were given 2 times at 4 hr and 30 min before the first MA injection as shown in the experimental schedule. Animals were sacrificed at 4 hrs and 3 days after the final MA administration.
(§2) The western blot assays was performed as described previously (Kim et al., 2003). Tissues were homogenized in lysis buffer, containing 200 mM Tris HCl (pH 6.8), 1% SDS, 5 mM EGTA (ethylene glycol tetraacetic acid), 5 mM EDTA (ethylenediaminetetraacetic acid), 10% glycerol, 1× phosphatase inhibitor cocktail I, 1× protease inhibitor cocktail. Lysate was centrifuged at 12,000×g for 30 min and supernatant fraction was used for Western blot analysis. Proteins (20-50 ug/lane) were separated by 6%, 8%, 10% or 15% sodium dodecyl sulfate-polyacrylamide gel electrophoresis and transferred onto the PVDF membranes. Following transfer, the membranes were preincubated with 5% non-fat milk and incubated overnight at 4° C. with primary antibody against β-actin (1:50000, Sigma, St. Louis, Mo., USA), TH (1:5000, Chemicon), TH phosphor-Ser 19 (1:1000, Chemicon,), TH phosphor-Ser 31 (1:500, Chemicon), TH phosphor-Ser 40 (1:500, Chemicon), F4/80 (1:500, Serotec), GPx1 (1:2500, AbFrontier), PKC (1:5000, Santa Cruz biotechnology, Santa Cruz, Calif., USA), p53 (1:5000, Cell signaling, Beverly, Mass., USA), MDM2 (1:1000, BD Pharmingen, San Jose, Calif., USA), MDM2 phospho-Ser 166 (1:1000, cell signaling), BDNF (1:500, Chemicon), GDNF (1:250, Santa Cruz), COX-2 (1:2000, Cayman, Ann Arbor, MC, USA), IL-6 (1:2000, Abcam, Cambridge, Mass., USA), TNF-a (1:1000, R&D Systems, Mckinley place NE, NM, USA), IFN-γ (1:500, Chemicon) or Iba-1 (1:500, Wako, Osaka, Japan). And then, membranes were incubated with HRP-conjugated secondary anti-rabbit IgG (1:1000, GE healthcare, Piscataway, N.J., USA), anti-mouse IgG (1:1000, Sigma) or anti-goat IgG (1:1000, Sigma) for 2 h. […]

[2] = test system: GPx-1 (+/+)- and GPx-1 (−/−)-mice; test: MA-induced hyperthermia (rectal temperature); conditions: MA 8 mg/kg i.p. x4
Description: as §1
Rectal temperature was measured in the MA- or saline-treated mice. Measurement was performed at constant daytime intervals starting at 9:00 A.M. to avoid the influence on circadian variations. Rectal temperature was measured by inserting a thermometer probe lubricated with oil at least 3 cm into the rectum of the mice. To prevent sudden movements occurring especially in MA-treated mice, animals were gently handled with a wool glove while their tail was moved to allow the probe insertion. This was done to prevent the effects of restrain stress on rectal temperature. When the attempt to insert probe was not successful (i.e., sudden movements of the animal or the need to restrain the mouse), the animal was excluded from the groups.

interleukin (IL)-6 = test: IL-6 expression after MA (western blot); conditions: p.o.; AME 50, EBS 20, rottlerin 20 mg/kg; MA 8 mg/kg i.p. x4; GPx-1 (+/+) and (−/−) mice
Description: as §1, §2

[3] = test system: GPx-1 (+/+)- and GPx-1 (−/−)-mice; test: Locomotor activity after MA; conditions: MA 8 mg/kg i.p. x4, GPx-1 (+/+) and (−/−) mice
Description: as §1
Locomotor activity was measured for 30 min 3 days after the last MA administration using an automated video-tracking system (Noldus Information Technology, Wagenin, The Netherlands). Four test boxes (40×40×30 cm high) were operated simultaneously by an IBM computer. Mice were studied individually during locomotion in each test box, where they were adapted for 5 min before starting the experiment. […] The distance traveled in cm by the animals in horizontal locomotor activity was analyzed. Data were collected and analyzed between 09:00 and 17:00 h (Kim et al., 2001).

TH phospho-ser 40 = test: Striatal phospho-TH-ser 40 after MA (western blot); conditions: p.o.; AME 50, EBS 20, rottlerin 20 mg/kg; MA 8 mg/kg i.p. x4; GPx-1 (+/+) and (−/−) mice
Description: as §1, §2

[4] = test system: brain-derived neurotrophic factor (BDNF); test: Striatal BDNF expression after MA (western blot); conditions: p.o.; AME 50, EBS 20, rottlerin 20 mg/kg; MA 8 mg/kg i.p. x4; GPx-1 (+/+) and (−/−) mice
Description: as §1, §2

[5] = test system: glutathione peroxidase (GPx)-1; test: Striatal GPx-1-like immunoreactivity after MA; conditions: p.o.; AME 50, EBS 20, rottlerin 20 mg/kg; MA 8 mg/kg i.p. x4; GPx-1 (+/+) mice
Description: as §1
Animals were sacrificed at 4 hours and 3 days after the last MA injection. They were anesthetized with 60% urethane and perfused transcardially with 50 ml of 50 mM phosphate buffered saline (PBS), followed by 50 ml of a mixture of 4% paraformaldehyde in PBS. The rate of perfusion was 50 ml/min. The brains were removed, post-fixed at 4° C. for 24 h in the same fixative and then cryoprotected in 30% sucrose in PBS. The brains were cut on a horizontal sliding microstome into 40 μm transverse free-floading sections (Kim et al., 1999).
The immunocytochemistry was performed as described previously (Kim et al., 2000a, b). Briefly, prior to incubation with the primary antibodies, sections were preincubated with 0.3% hydrogen peroxide in PBS for 30 min (to block endogenous peroxidase activity), then in PBS containing 0.4% Triton X-100 for 20 min and 1% normal serum for 20 min. The sections were then incubated for 48 h at 4° C. in primary antibody against tyrosine hydroxylase (1:500, Chemicon, Termecula, Calif., USA), GPx1 (1:500, AbFrontier, Seoul, Korea), PKC (1:200, Santa Cruz biotechnology INC, CA, USA) or F4/80 (1:50, Serotec, Raleigh, N.C., USA). The sections were further incubated with secondary biotinylated antisera (1:1000 dilution; Vector, Brulingame, Calif.) for 1 hr, and immersed in avidin-biotin-peroxidase complex (ABC Elite kit, Vector) for 1 hr. Sections were always washed three times with PBS (pH 7.4) between each incubation step. 3,3′-diaminobenzidine (DAB) was used as a chromogen.
The western blot assays was performed as described previously (Kim et al., 2003). […]

[6] = p.o., AME 25 or 50, EBS 10 or 20, rottlerin 10 or 20 mg/kg (p<0.01 at high dose), GPx-1 (+/+) and (−/−) mice
[7] = p.o., AME 25 or 50, EBS 10 or 20, rottlerin 10 or 20 mg/kg

SMILES: CC(=O)Oc1ccccc1C(=O)Oc1c(C)occc1=O [AME, 3-(2-methyl-4-pyronyl)-2-acetyloxybenzoate]
- effect on MA-induced increase in TNF-α expression [1]: significantly and consistently attenuating effects
- effect on MA-induced hyperthermia [2, 6]: attenuated hyperthermia induced by MA in a dose-related manner
- effect on MA-induced increase in IL-6 expression (interleukin (IL)-6): significantly and consistently attenuating effects
- effect on MA-induced impairment in locomotor activity [3, 7]: inhibited these effects in a dose-dependent manner
- effect on MA-induced decrease in phospho-TH-ser 40 (TH phospho-ser 40): significantly blocked
- effect on MA-induced reduction in BDNF expression [4]: significantly attenuated these reductions
- effect on MA-induced decrease in striatal GPx-1-IR [5]: inhibited MA-induced decrease in the GPx-1-IR

SMILES: O=c1c2ccccc2[se]n1-c1ccccc1 [EBS, 2-phenyl-1,2-benzisoselenazol-3(2H)-one]
- effect on MA-induced increase in TNF-α expression [1]: significantly and consistently attenuating effects
- effect on MA-induced hyperthermia [2, 6]: attenuated hyperthermia induced by MA in a dose-related manner
- effect on MA-induced increase in IL-6 expression (interleukin (IL)-6): significantly and consistently attenuating effects
- effect on MA-induced impairment in locomotor activity [3, 7]: inhibited these effects in a dose-dependent manner
- effect on MA-induced decrease in phospho-TH-ser 40 (TH phospho-ser 40): significantly blocked
- effect on MA-induced reduction in BDNF expression [4]: significantly attenuated these reductions
- effect on MA-induced decrease in striatal GPx-1-IR [5]: inhibited MA-induced decrease in the GPx-1-IR

SMILES: CC(=O)c1c(O)c(C)c(O)c(Cc2c(O)c3c(c(C(=O)/C=C/c4ccccc4)c2O)OC(C)(C)C=C3)c1O [rottlerin]
- effect on MA-induced increase in TNF-α expression [1]: significantly and consistently attenuating effects
- effect on MA-induced hyperthermia ([2]; PKC inhibitors intra-striatal (doses of Table 1), GPx-1 (+/+) and GPx-1 (−/−) mice): significantly blocked MA-induced hyperthermia in a dose-dependent manner
- effect on MA-induced hyperthermia [2, 6]: attenuated hyperthermia induced by MA in a dose-related manner
- effect on MA-induced increase in IL-6 expression (interleukin (IL)-6): significantly and consistently attenuating effects
- effect on MA-induced impairment in locomotor activity ([3]; PKC inhibitors intra-striatal (chelerythrine 0.2 ug/head, rottlerin 3.0 ug/head significant)): attenuated the MA-behavioral impairments in a dose-dependent manner
- effect on MA-induced impairment in locomotor activity [3, 7]: inhibited these effects in a dose-dependent manner
- effect on MA-induced decrease in phospho-TH-ser 40 (TH phospho-ser 40): significantly blocked
- effect on MA-induced reduction in BDNF expression [4]: significantly attenuated these reductions
- effect on MA-induced decrease in striatal GPx-1-IR [5]: inhibited MA-induced decrease in the GPx-1-IR
